The results in this text go back to patent US20190192543A1, “NOVEL USE” (IDOGEN AB, priority 2016, published 2019).

For this experiment, the system named is IDO1 gene expression in THP-1 cells. Description: Induction of IDO1 in THP-1 cells (RT-qPCR). The settings on record: for IDO1 expression (fold change): 96 hours, normalised to HPRT1, vs DMSO control. The experiment is classed as cell-based, human. As to the method:
THP-1 cells were harvested from appropriate number of T75 flasks. Cells were counted in a Bürker chamber, stained with 0.4% Trypan Blue. The appropriate number of cells for each experiment were transferred to a new tube and centrifuged at 1200 rpm, 5 min at room temperature (RT). The supernatant was discarded and fresh RPMI with 5% FBS were added to get a cell concentration of 2×10^5 cells/mL. The compound was added to the five separate wells in 6-well plates such that five different final concentrations were obtained after adding the cells. A control was added to one well in the 6-well plate to which cells were added. 1×10^6 cells per well were seeded out to achieve a total volume of 5 mL per well. The cells were incubated at 37° C. in 5% CO2 for 96 hours. After 96 hours the assay was stopped and the cells were lysed for the isolation of RNA.
Total RNA was extracted from THP-1 cells using the RNA RNeasy Mini extraction kit (Qiagen), according to the manufacturer's instructions. A SuperScript® VILO™ RT-kit (Thermo Fisher) was used to reverse transcribe 1 μg of total RNA to cDNA and qPCR was performed. The primers used for amplification of the human IDO1 gene were 5″-[…]-3″ (forward; SEQ ID No. 1) and 5″-[…]-3″ (reverse; SEQ ID No. 2). The primers used for amplification of the endogenous reference gene for human HPRT1 were 5″-[…]-3″ (forward; SEQ ID No. 3) and 5″-[…]-3″ (reverse; SEQ ID No. 4). In brief, RT-qPCR was performed in 20 μl reaction, consisting 10 μl PowerUp SYBR Green Master Mix, 0.5 μM of each primer, 4 μl diluted cDNA for amplification of IDO1 and 1.5 μl diluted cDNA for amplification of HPRT1. An iCycler iQ real-time detection system (Stratagene, Mx3000P, La Jolla, Calif., USA) with the following thermal profile: UDG incubation at 50° C. for 2 min, then denaturation at 95° C. for 5 min, followed by 45 cycles at 94° C. for 15 s, 58° C. for 30 s, and 60° C. for 30 s, was used to perform thermocycling and real-time detection of PCR products. After amplification a melting curve analysis was performed. The RT-qPCR experiments were always run in triplicate. IDO1 was normalised to the geometric means of two HPRT1 reference gene, using the ΔCt method. Within-group comparisons were normalized to one control sample, using the ΔΔCt method.
The procedure under “Induction of IDO1 in THP-1 cells” was followed such that the final concentrations set out in Table 1 were obtained.
Following RNA extraction and quantification of gene expression by RT-qPRC, as described above, induction of IDO1 gene expression using Samples 1 to 6 was investigated.
On the technique in general: In qPCR the cycle at which signal appears reflects the starting amount.

`Nc1ncn([C@H]2C[C@H](OP(=O)(O)OC[C@H]3O[C@@H](n4cnc5c(=O)[nH]c(N)nc54)C[C@@H]3O)[C@@H](CO)O2)c(=O)n1` [guadecitabine]: the “IDO1 expression (fold change)” value runs as follows: (0.1 micromolar) 2.1 fold change; (0.3 micromolar) 4.7 fold change; (1 micromolar) 34 fold change; (3 micromolar) 68 fold change; (10 micromolar) 74 fold change. Further, the “increase of IDO1 gene expression (maximum over tested concentrations)” value (guadecitabine alone, 0.1-10 micromolar, highest induction at 10 micromolar) is given as “up to 74 fold”.
